Reference: ChEMBL document CHEMBL1158644, “An investigation of the antitumor activity of Micromelum integerrimum (Rutaceae)” (1979)
Activity calls are given as the source filed them. The calls are words filed in the database; no cut-off is given here.

Experiments:
P388 [1] = assay: In vivo antitumor activity against mouse P388 cells at 10 mg/kg; assay type: functional
9KB = assay: Cytotoxicity against human 9KB cells; assay type: functional, cell-based
[2] = system: Lewis lung carcinoma cell line; assay: In vivo antitumor activity against mouse LLC at 1.25 mg/kg; assay type: functional
P388 [3] = assay: In vivo antitumor activity against mouse P388 cells at 400 mg/kg; assay type: functional
L1210 = assay: Cytotoxicity against mouse L1210 cells; assay type: functional, cell-based
CCRF S-180 = assay: Cytotoxicity against mouse S180 cells; assay type: functional, cell-based
CA-755 = assay: In vivo antitumor activity against mouse CA-755 cells at 100 mg/kg; assay type: functional

Compound	T/C (P388 [1]) [%]	Activity (9KB)	T/C [2] [%]	T/C (P388 [3]) [%]	Activity (L1210)	Activity (CCRF S-180)	T/C (CA-755) [%]
COc1cc2oc(=O)ccc2cc1C1OC(=O)[C@]2(C)O[C@H]12 (some centres undefined)	149	inactive	228				
COc1cc2oc(=O)ccc2cc1C1C=C(C)C(=O)O1 (centres undefined)		inactive					
COc1cc2ccc(=O)oc2cc1O [SCOPOLETIN]		inactive		130	inactive	inactive	48
